From PubChem BioAssay (NCI)
“And” between values parts separate entries of the source, which are not always exact repeats. Identical values can stand only once.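 All cell lines were grown in 96-well plates and treated with compound for 48 hours. The concentration for 50% growth inhibition is given as GI50. TGI marks complete inhibition of growth.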

Assays:
Experiment in all cases: NCI-60 cell line screen, 48 h
BT-549 breast = test system: BT-549 breast
HS 578T breast = test system: HS 578T breast
PC-3 prostate = test system: PC-3 prostate
DMS 273 small cell lung = test system: DMS 273 small cell lung
SNB-78 CNS = test system: SNB-78 CNS
DMS 114 small cell lung = test system: DMS 114 small cell lung
XF 498 CNS = test system: XF 498 CNS
MDA-N = test system: MDA-N

COc1cc(Nc2ncc(-c3ccccc3)o2)cc(OC)c1OC
GI50 (BT-549 breast): 3.24 µM
TGI (BT-549 breast): > 25 µM
GI50 (HS 578T breast): 0.278 µM
TGI (HS 578T breast): 4.55 µM
GI50 (PC-3 prostate): 7.3 µM
TGI (PC-3 prostate): > 25 µM

NC(=O)c1ccc(-c2c3ccccc3cc3c2ccc2ccccc23)cc1
GI50 (HS 578T breast): 2 µM
TGI (HS 578T breast): 7.08 µM
GI50 (PC-3 prostate): 4.88 µM
TGI (PC-3 prostate): 24.5 µM

Fc1cc(Nc2ccc3c(OCCCN4CCOCC4)cccc3n2)ccc1Cl
GI50 (BT-549 breast): 5.16 µM
TGI (BT-549 breast): 18.7 µM
GI50 (HS 578T breast): 2.19 µM
TGI (HS 578T breast): 6 µM
GI50 (PC-3 prostate): 2.08 µM
TGI (PC-3 prostate): 5.83 µM

Cc1cc(I)cc(CN(C)CCCCN2CCCC2)c1O
GI50 (BT-549 breast): 13.6 µM
TGI (BT-549 breast): 33.5 µM
GI50 (HS 578T breast): 11.5 µM
TGI (HS 578T breast): 32.8 µM
GI50 (PC-3 prostate): 24.8 µM
TGI (PC-3 prostate): 83.6 µM

Cc1ccc(Nc2ccnc(Nc3cccc(C(N)=O)c3)n2)cc1O
GI50 (BT-549 breast): 6.4 µM
TGI (BT-549 breast): > 25 µM
GI50 (HS 578T breast): 0.742 µM
TGI (HS 578T breast): 8.98 µM
GI50 (PC-3 prostate): 5.42 µM
TGI (PC-3 prostate): > 25 µM

C(=C1/CCCCC([n+]2ccccc2)=N1)/c1ccccc1
TGI (DMS 273 small cell lung): > 100 µM
TGI (SNB-78 CNS): > 100 µM
TGI (DMS 114 small cell lung): > 100 µM

CC12CC(=O)NN=C1c1ccccc1C2 (centres undefined)
TGI (DMS 273 small cell lung): > 100 µM
TGI (SNB-78 CNS): > 100 µM
TGI (XF 498 CNS): > 100 µM
TGI (DMS 114 small cell lung): > 100 µM

ClCc1ccc(Cn2cnc3ncnc(Cl)c32)cc1
GI50 (BT-549 breast): 3.75 µM
TGI (BT-549 breast): 16.9 µM
GI50 (HS 578T breast): 1.74 µM
TGI (HS 578T breast): 4.3 µM
GI50 (PC-3 prostate): 1.58 µM
TGI (PC-3 prostate): 2.93 µM

O=c1c2c(=NCCCN3CCCC3)cc3c(=O)n(CCCN4CCCC4)c(=O)c4c(NCCCN5CCCC5)cc(c(O)n1CCCN1CCCC1)c2c4-3
GI50 (BT-549 breast): 14.1 µM
TGI (BT-549 breast): 36.1 µM
GI50 (HS 578T breast): 2.67 µM
TGI (HS 578T breast): 9.63 µM
GI50 (PC-3 prostate): 3.66 µM
TGI (PC-3 prostate): 36.7 µM

CC(Cl)CC(=O)Nc1ccc2c(c1)oc(=O)c1cc(NC(=O)CC(C)Cl)ccc12 (centres undefined)
GI50 (BT-549 breast): 22.1 µM
TGI (BT-549 breast): 53.3 µM
GI50 (HS 578T breast): 2.36 µM
TGI (HS 578T breast): 22.6 µM
GI50 (PC-3 prostate): 12.4 µM
TGI (PC-3 prostate): 27.7 µM

COc1cc(SC)ccc1C(=O)N1CCCC(C)C1 (centres undefined)
GI50 (BT-549 breast): > 100 µM
TGI (BT-549 breast): > 100 µM
GI50 (HS 578T breast): > 100 µM
TGI (HS 578T breast): > 100 µM
GI50 (PC-3 prostate): > 100 µM
TGI (PC-3 prostate): > 100 µM

CCCC/C(C)=N/NC(N)=S
TGI (SNB-78 CNS): > 100 µM
TGI (DMS 114 small cell lung): > 100 µM

O=[N+]([O-])C(=C(c1ccccc1)c1ccccc1)[N+](=O)[O-]
TGI (DMS 273 small cell lung): 22.5 µM
TGI (DMS 114 small cell lung): 43.2 µM

COc1ccc(/C=C/CO)cc1OC
TGI (DMS 273 small cell lung): > 100 µM
TGI (SNB-78 CNS): > 100 µM
TGI (DMS 114 small cell lung): > 100 µM

COc1ccccc1OCC(O)CO (centres undefined)
GI50 (BT-549 breast): > 100 µM
TGI (BT-549 breast): > 100 µM
GI50 (HS 578T breast): > 100 µM
TGI (HS 578T breast): > 100 µM
GI50 (PC-3 prostate): > 100 µM
TGI (PC-3 prostate): > 100 µM

C=C(C)[C@@H]1CC[C@]2(C#N)CC[C@]3(C)[C@H](CC[C@@H]4[C@@]5(C)CCCNC(C)(C)[C@@H]5CC[C@]43C)[C@@H]12
GI50 (BT-549 breast): 1.75 µM
TGI (BT-549 breast): 3.42 µM
GI50 (HS 578T breast): 2.01 µM
TGI (HS 578T breast): 4.85 µM
GI50 (PC-3 prostate): 2.7 µM
TGI (PC-3 prostate): 10.7 µM

Fc1ccc(-c2c(-c3ccncc3)n(CCN3CCOCC3)c3cccnc23)cc1
GI50 (BT-549 breast): > 25 µM
TGI (BT-549 breast): > 25 µM
GI50 (HS 578T breast): > 25 µM
TGI (HS 578T breast): > 25 µM
GI50 (PC-3 prostate): > 25 µM
TGI (PC-3 prostate): > 25 µM

OCC(O)C(OC1OC(CO)C(O)C(O)C1O)c1nn(-c2ccc(F)cc2)c2nc3cc(Cl)c(Cl)cc3cc12 (centres undefined)
TGI (SNB-78 CNS): > 100 µM
TGI (XF 498 CNS): > 100 µM
TGI (DMS 114 small cell lung): > 100 µM

CC(=O)Nc1[nH]c(=O)[nH]c(=O)c1N(C(C)=O)C(C)=O
TGI (DMS 273 small cell lung): > 100 µM
TGI (SNB-78 CNS): > 100 µM
TGI (XF 498 CNS): > 100 µM
TGI (DMS 114 small cell lung): > 100 µM

COc1ccc2c3c([nH]c2c1)[C@H]1C[C@H]2[C@H](C[C@@H](O)[C@H](OC)[C@H]2C(=O)O)CN1CC3
TGI (BT-549 breast): > 100 µM
TGI (HS 578T breast): > 100 µM
TGI (PC-3 prostate): > 100 µM
TGI (MDA-N): > 100 µM

COCCn1cc(-c2csc(-c3c[nH]c4ccc(F)cc34)n2)c2cccnc21
GI50 (BT-549 breast): 4.26 µM
TGI (BT-549 breast): > 100 µM
GI50 (HS 578T breast): 8.82 µM
TGI (HS 578T breast): > 100 µM
GI50 (PC-3 prostate): 5.07 µM
TGI (PC-3 prostate): > 100 µM

CN(C)c1ccc(/C=N/Nc2ccc(-c3nc4ccccc4[nH]3)cc2)cc1
GI50 (BT-549 breast): 12.4 µM
TGI (BT-549 breast): 35.5 µM
GI50 (HS 578T breast): 5.61 µM
TGI (HS 578T breast): 23.6 µM
GI50 (PC-3 prostate): 7.27 µM
TGI (PC-3 prostate): > 50 µM

C[C@H]1CC(=O)[C@@]2(O)C#C/C=C\C#C[C@@H]3Nc4c(cc(O)c5c4C(=O)c4ccccc4C5=O)[C@]24O[C@]314
GI50 (HS 578T breast): 0.292 µM
TGI (HS 578T breast): 8.35 µM and 1.35 µM
TGI (MDA-N): 0.26 µM

CC(C)S(=O)(=O)n1c(N)nc2ccc(/C(=N/O)c3ccccc3)cc21
TGI (DMS 273 small cell lung): > 100 µM
TGI (SNB-78 CNS): > 100 µM
TGI (DMS 114 small cell lung): 43.8 µM

O=C(O)CCN1C(=O)/C(=C/C(Cl)=C/c2ccccc2)SC1=S
GI50 (BT-549 breast): 2.14 µM
TGI (BT-549 breast): 6.27 µM
GI50 (HS 578T breast): 3.18 µM
TGI (HS 578T breast): 17.3 µM
GI50 (PC-3 prostate): 2.87 µM
TGI (PC-3 prostate): 11.4 µM

CC(C)=CCC[C@](C)(O)[C@H]1CC[C@]2(C)[C@@H]1CC[C@@H]1[C@@]3(C)CC[C@H](OC(=O)CCC(=O)O)C(C)(C)[C@@H]3CC[C@]12C
GI50 (BT-549 breast): > 100 µM
TGI (BT-549 breast): > 100 µM
GI50 (HS 578T breast): 45.8 µM
TGI (HS 578T breast): > 100 µM
GI50 (PC-3 prostate): 8.79 µM
TGI (PC-3 prostate): 28.4 µM

CCn1c(-c2cc3ccccc3cc2OC(=O)c2ccccc2)n[nH]c1=S
GI50 (BT-549 breast): 34 µM
TGI (BT-549 breast): > 50 µM
GI50 (HS 578T breast): 11.6 µM
TGI (HS 578T breast): 44.8 µM
GI50 (PC-3 prostate): 19.6 µM
TGI (PC-3 prostate): > 50 µM

O=C(O)C(O)C(O)C1[O][Sb][O]C1CO (centres undefined)
GI50 (DMS 273 small cell lung): > 100 µM
TGI (DMS 273 small cell lung): > 100 µM
GI50 (SNB-78 CNS): > 81.3 µM
TGI (SNB-78 CNS): > 100 µM
GI50 (BT-549 breast): > 100 µM
TGI (BT-549 breast): > 100 µM
GI50 (HS 578T breast): > 100 µM
TGI (HS 578T breast): > 100 µM
GI50 (XF 498 CNS): > 100 µM
TGI (XF 498 CNS): > 100 µM
GI50 (PC-3 prostate): > 100 µM
TGI (PC-3 prostate): > 100 µM
GI50 (DMS 114 small cell lung): > 43 µM
TGI (DMS 114 small cell lung): 98.3 µM
GI50 (MDA-N): > 100 µM
TGI (MDA-N): > 100 µM

C[C@@H]1CC[C@H]2C(CN3CCN(CC4=C(C(F)(F)F)O[C@@H]5O[C@@]6(C)CC[C@H]7[C@H](C)CC[C@@H]4[C@@]57OO6)CC3)=C(C(F)(F)F)O[C@@H]3O[C@@]4(C)CC[C@@H]1[C@]32OO4
GI50 (BT-549 breast): 2.53 µM
TGI (BT-549 breast): > 100 µM
GI50 (HS 578T breast): 1.75 µM
TGI (HS 578T breast): > 47.3 µM
GI50 (PC-3 prostate): 0.351 µM
TGI (PC-3 prostate): > 100 µM

COc1cc(C(=O)c2c(-c3ccccc3)oc3ccccc23)cc(OC)c1O
GI50 (BT-549 breast): 1.39 µM
TGI (BT-549 breast): 7.82 µM
GI50 (HS 578T breast): 0.898 µM
TGI (HS 578T breast): 8.47 µM
GI50 (PC-3 prostate): 3.47 µM
TGI (PC-3 prostate): 15.7 µM
